The structures appear in SMILES notation.

The target in one assay is T1, Human DYRK1B (Homo sapiens, UniProt Q9Y463).
T1 construct: purchased Invitrogen PR8350B (former PV4649)
The assay can be described thus: DYRK1B Kinase TR-FRET (IMAP-Tb) Assay. Type of assay: biochemical. To be noted: for IC50: TR-FRET (IMAP-Tb), ATP 70 μM, 37° C., 60 minutes, average of multiple runs, read-out: Enzyme IC50 (μM) DYRK1B; for inhibition at 10 µM: % inhibition at 10 μM test compound concentration, where IC50 not determined. An excerpt:
DYRK1B Kinase TR-FRET (IMAP-Tb) Assay The kinase TR-FRET (IMAP-Tb) assay uses a fluorescence labeled substrate peptide in the kinase reaction. Upon phosphorylation by the kinase, phosphopeptide is produced, which will be detected by the binding solution provided in IMAP TR-FRET binding kit. After the completion of the kinase reaction, the reaction will be stopped by adding the binding solution containing terbium tracer. This tracer is immobilized on the surface of the IMAP beads, which also contain metal ions on the beads that bind to the phospho-groups of the products. Thus the phosphorylated product of the reaction can enter into close proximity to the tracer, producing resonance energy transfer. Due to the long lifetime of terbium (Tb) fluorescence the detection can be run in time resolved mode, which virtually eliminates fluorescence interference from assay components or compounds. The TR-FRET signal measurement from this assay, given as an IC50 measurement, is a measure of a test compound's ability to interfere with the phosphorylation of the peptide substrate, that is it inhibits the phosphorylation of the substrate peptide by DYRK1B, and is thus a measure of the test compound's ability to inhibit the activity of DYRK1B. […] Human DYRK1B: from Invitrogen. Part #PR8350B (former PV4649) • 2. Substrate Peptide: in-house synthesized: RRRFRPASPLRGPPK • 3. IMAP TR-FRET IPP Explorer Kit: from Molecular Devices. Part #R8157 • 4. Kinase Assay Buffer (KAB): 10 mM HEPES pH 7.0, 50 mM NaCl, 5 mM MgCl2, 1 mM DTT, 1 mM NaVO4, 200 μg/mL BSA (0.02%) • 5. Assay Plate: Remp polypropylene clear 384-well microplate. Cat#23490-102 • 6. Detection Plate: Costa black 384-well microplate. Cat #3710 Assay Procedure: This assay was performed as follows: • 1. Transfer 1.5 μL of 20× compound solution to each well of an assay plate. • 2. Add to each well 22.5 μL of KAB Buffer. • 3. Add to each well 3 μL of the solution of DYRK1B and ATP. […] Add to each well 3 μL of the substrate peptide. The assay concentration is 1.0 μM • 5. Incubate the assay plates at 37° C. for 60 minutes. • 6. Add 18 μL of Detection Solution (1:800 diluted Progress bead stock, 1:400 diluted Tb stock, 80% Buffer A, and 20% Buffer B) into each well of detection plates. • 7. Transfer 6 μL of assay solution from the assay plate to the detection plate. • 8. Shake detection plates for 30 minutes. • 9. Read plates in Envision with wavelength set at excitation 340 nm for Tb, emission 490 nm, and […] 520 nm. • 10. Calculation: TR-FRET Signal=(Reading at […]/Reading at 490 nM)×2000000

In another assay the target is T2, Human DYRK1A (Homo sapiens, UniProt Q13627).
T2 construct: purchased Invitrogen PV3997
As to the kind of experiment: DYRK1A Kinase TR-FRET (IMAP-Tb) Assay. Type of assay: biochemical. To be noted: for inhibition at 10 µM: % inhibition at 10 μM test compound concentration, where IC50 not determined, read-out: % inhibition DYRK1A (printed in the Enzyme IC50 DYRK1A column); for IC50: TR-FRET (IMAP-Tb), ATP 70 μM, 37° C., 60 minutes, average of multiple runs, read-out: Enzyme IC50 (μM) DYRK1A. An excerpt:
DYRK1A Kinase TR-FRET (IMAP-Tb) Assay
The kinase TR-FRET (IMAP-Tb) assay uses a fluorescence labeled substrate peptide in the kinase reaction. Upon phosphorylation by the kinase, phosphopeptide is produced, which will be detected by the binding solution provided in IMAP TR-FRET binding kit. After the completion of the kinase reaction, the reaction will be stopped by adding the binding solution containing terbium tracer. This tracer is immobilized on the surface of the IMAP beads, which also contain metal ions on the beads that bind to the phospho-groups of the products. Thus the phosphorylated product of the reaction can enter into close proximity to the tracer, producing resonance energy transfer. Due to the long lifetime of terbium (Tb) fluorescence the detection can be run in time resolved mode, which virtually eliminates fluorescence interference from assay components or compounds.
The TR-FRET signal measurement from this assay, given as an IC50 measurement, is a measure of a test compound's ability to interfere with the phosphorylation of the peptide substrate, that is it inhibits the phosphorylation of the substrate peptide by DYRK1A, and is thus a measure of the test compound's ability to inhibit the activity of DYRK1A.
• 1. Human DYRK1A: from Invitrogen. Part #PV3997 • 2. Substrate Peptide: […] • 3. IMAP TR-FRET IPP Explorer Kit: from Molecular Devices. Part #R8157 • 4. Kinase Assay Buffer (KAB): 10 mM HEPES pH 7.0, 50 mM NaCl, 5 mM MgCl2, 1 mM DTT, 1 mM NaVO4, 200 μg/mL BSA (0.02%) • 5. Assay Plate: Remp polypropylene clear 384-well microplate. […] Detection Plate: Costa black 384-well microplate. […] Transfer 1.5 μL of 20× compound solution to each well of an assay plate. • 2. Add to each well 22.5 μL of KAB Buffer. • 3. Add to each well 3 μL of the solution of DYRK1A and ATP. […] Add to each well 3 μL of the substrate peptide. The assay concentration is 1.0 μM • 5. Incubate the assay plates at 37° C. for 60 minutes. • 6. Add 18 μL of Detection Solution (1:800 diluted Progress bead stock, 1:400 diluted Tb stock, 80% Buffer A, and 20% Buffer B) into each well of detection plates. • 7. Transfer 6 μL of assay solution from the assay plate to the detection plate. • 8. Shake detection plates for 30 minutes. • 9. Read plates in Envision with wavelength set at excitation 340 nm for Tb, emission 490 nm, and […].

T1 sequence (Q9Y463 whole entry): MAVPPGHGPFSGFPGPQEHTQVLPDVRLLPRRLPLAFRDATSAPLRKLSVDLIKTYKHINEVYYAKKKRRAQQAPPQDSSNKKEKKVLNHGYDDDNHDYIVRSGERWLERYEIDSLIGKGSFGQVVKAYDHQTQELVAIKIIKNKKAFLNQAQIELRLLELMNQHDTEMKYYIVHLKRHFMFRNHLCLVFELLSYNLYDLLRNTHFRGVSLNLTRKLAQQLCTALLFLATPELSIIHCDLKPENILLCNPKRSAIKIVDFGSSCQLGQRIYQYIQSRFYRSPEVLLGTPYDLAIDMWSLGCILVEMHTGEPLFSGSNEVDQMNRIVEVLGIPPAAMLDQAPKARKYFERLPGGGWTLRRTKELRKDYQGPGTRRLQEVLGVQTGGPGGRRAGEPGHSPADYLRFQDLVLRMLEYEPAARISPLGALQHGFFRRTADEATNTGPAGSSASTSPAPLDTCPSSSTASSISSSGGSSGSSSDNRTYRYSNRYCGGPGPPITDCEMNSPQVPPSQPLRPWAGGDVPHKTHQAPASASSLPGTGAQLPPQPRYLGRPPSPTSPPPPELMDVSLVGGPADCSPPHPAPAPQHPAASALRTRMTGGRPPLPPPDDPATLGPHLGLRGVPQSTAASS

`COC(=O)c1ccc(C)c(NC(=O)c2cc3cnc(OC)cc3[nH]c2=O)c1` [Example 28, 3-[(7-Methoxy-2-oxo-1,2-dihydro-[1,6]naphthyridine-3-carbonyl)-amino]-4-methyl-benzoic acid methyl ester]: at Human DYRK1B, the IC50 was above 10 µM. The inhibition at 10 µM at Human DYRK1A was determined as 24%.

For `COc1cc2[nH]c(=O)c(C(=O)Nc3cc(C(=O)NCc4ccccc4)ccc3Cl)cc2cn1` [Example 32, 7-Methoxy-2-oxo-1,2-dihydro-[1,6]naphthyridine-3-carboxylic acid (5-benzylcarbamoyl-2-chloro-phenyl)-amide], the values for the inhibition at 10 µM on Human DYRK1B and at Human DYRK1A were 19% and 23%, respectively. Taken in the same sequence, the figures for `COc1cc2[nH]c(=O)c(C(=O)Nc3cc(C(=O)NCc4ccccc4Cl)ccc3C)cc2cn1` [Example 34, 7-Methoxy-2-oxo-1,2-dihydro-[1,6]naphthyridine-3-carboxylic acid [5-(2-chloro-benzylcarbamoyl)-2-methyl-phenyl]-amide] were 28% and 45%. Consider `COc1cc2[nH]c(=O)c(C(=O)Nc3cc(C(=O)NCc4cccc(Cl)c4)ccc3C)cc2cn1` [Example 35, 7-Methoxy-2-oxo-1,2-dihydro-[1,6]naphthyridine-3-carboxylic acid [5-(3-chloro-benzylcarbamoyl)-2-methyl-phenyl]-amide], for which the inhibition at 10 µM at Human DYRK1B is 35%; on Human DYRK1A it was 45%.

`COc1cc2[nH]c(=O)c(C(=O)Nc3cc(C(=O)NCc4ccc(Cl)cc4)ccc3C)cc2cn1` [Example 36, 7-Methoxy-2-oxo-1,2-dihydro-[1,6]naphthyridine-3-carboxylic acid [5-(4-chloro-benzylcarbamoyl)-2-methyl-phenyl]-amide]: the IC50 on Human DYRK1B and on Human DYRK1A was above 10 µM throughout. Turning to `COc1cc2[nH]c(=O)c(C(=O)Nc3cc(C(=O)NCc4ccccc4Cl)ccc3Cl)cc2cn1` [Example 39, 7-Methoxy-2-oxo-1,2-dihydro-[1,6]naphthyridine-3-carboxylic acid [2-chloro-5-(2-chloro-benzylcarbamoyl)-phenyl]-amide], the figures for the 50% inhibitory concentration (IC50) on Human DYRK1B and on Human DYRK1A were 7.22 µM and 0.63 µM, respectively. Take `COc1cc2[nH]c(=O)c(C(=O)Nc3cc(C(=O)NCc4cccc(Cl)c4)ccc3Cl)cc2cn1` [Example 40, 7-Methoxy-2-oxo-1,2-dihydro-[1,6]naphthyridine-3-carboxylic acid [2-chloro-5-(3-chloro-benzylcarbamoyl)-phenyl]-amide]: the IC50 at Human DYRK1A stood at 0.051 µM. Take `COc1cc2[nH]c(=O)c(C(=O)Nc3cc(C(=O)NCc4ccc(Cl)cc4)ccc3Cl)cc2cn1` [Example 41, 7-Methoxy-2-oxo-1,2-dihydro-[1,6]naphthyridine-3-carboxylic acid [2-chloro-5-(4-chloro-benzylcarbamoyl)-phenyl]-amide]: the half-maximal inhibitory concentration (IC50) at Human DYRK1B and at Human DYRK1A was above 10 µM throughout. `COc1cc2[nH]c(=O)c(C(=O)Nc3cc(C(=O)NCc4cccs4)ccc3Cl)cc2cn1` [Example 42, 7-Methoxy-2-oxo-1,2-dihydro-[1,6]naphthyridine-3-carboxylic acid {2-chloro-5-[(thiophen-2-ylmethyl)-carbamoyl]-phenyl}-amide]: the results for the inhibition at 10 µM against Human DYRK1B and at Human DYRK1A were 41% and 27%, respectively.

With `COC(=O)c1ccc(C)c(NC(=O)c2cc3cnc(N4CCN(C)CC4)cc3[nH]c2=O)c1` [Example 74, 4-Methyl-3-{[7-(4-methyl-piperazin-1-yl)-2-oxo-1,2-dihydro-[1,6]naphthyridine-3-carbonyl]-amino}-benzoic acid methyl ester], the figures for the IC50 at Human DYRK1B and at Human DYRK1A were 3.55 µM and 0.96 µM, respectively. For `COC(=O)c1ccc(C)c(NC(=O)c2cc3ccc(N4CCN(C)CC4)nc3[nH]c2=O)c1` [Example 87, 4-Methyl-3-{[7-(4-methyl-piperazin-1-yl)-2-oxo-1,2-dihydro-[1,8]naphthyridine-3-carbonyl]-amino}-benzoic acid methyl ester], the IC50 was 1.31 µM at Human DYRK1B and 0.915 µM at Human DYRK1A. As for `COC(=O)c1ccc(C)c(NC(=O)c2cc3ccc(OC)nc3[nH]c2=O)c1` [Example 89, 3-[(7-Methoxy-2-oxo-1,2-dihydro-[1,8]naphthyridine-3-carbonyl)-amino]-4-methyl-benzoic acid methyl ester], the inhibition at 10 µM on Human DYRK1B came out at 47%. For the same molecule, the IC50 at Human DYRK1A is 0.125 µM. With `COc1ccc2cc(C(=O)Nc3cc(C(=O)NCc4ccccc4)ccc3Cl)c(=O)[nH]c2n1` [Example 94, N-(5-(Benzylcarbamoyl)-2-chlorophenyl)-7-methoxy-2-oxo-1,2-dihydro-1,8-naphthyridine-3-carboxamide], the IC50 on Human DYRK1B came to 0.079 µM; on Human DYRK1A, 0.05 µM. For the molecule `COc1ccc2cc(C(=O)Nc3cc(C(=O)NCc4ccccc4)ccc3C)c(=O)[nH]c2n1` [Example 98, N-(5-(Benzylcarbamoyl)-2-methylphenyl)-7-methoxy-2-oxo-1,2-dihydro-1,8-naphthyridine-3-carboxamide], the IC50 is 0.69 µM at Human DYRK1B and 0.79 µM at Human DYRK1A. On to `COc1ccc2cc(C(=O)Nc3cc(C(=O)NC(CCN)c4ccccc4)ccc3C)c(=O)[nH]c2n1` (centres unmarked) [Example 100, N-(5-(3-Amino-1-phenylpropylcarbamoyl)-2-methylphenyl)-7-methoxy-2-oxo-1,2-dihydro-1,8-naphthyridine-3-carboxamide], for which the IC50 is 0.0158 µM at Human DYRK1B and 0.0162 µM at Human DYRK1A.

The values above are taken from patent US20120184562A1, “1,6- AND 1,8-NAPHTHYRIDINES” (priority 2011, published 2012).
